Laboratory results as given in US4931443A, “Piperazine compound and pharmaceutical use thereof” (Yoshitomi Pharmaceutical Industries, Ltd., priority 1986, dated 1990).

How the values were obtained:
[1] = test system: serotonin-induced head-twitch; test: Experiment 2 Anti-serotonin action (head-twitch method in mice); format: in vivo, male dd-strain mice; settings: Mus musculus, po; serotonin 40 μg/0.02 ml i.c.v. 1 h after compound; head-twitch counted 5 min; probit method
Procedure: Experiment 2 Anti-serotonin action (head-twitch method in mice)
Groups of 8-30 male dd-strain mice were used. The test compounds were orally administered and an hour later, 40 μg/0.02 ml of serotonin was intracerebroventricularly administered. Ten minutes thereafter, the numbers of head-twitch were measured for 5 minutes. The ED50 values calculated by the probit method considering the number of head-twitch induced by the administration of serotonin with less than once as the inhibitory action by the test compound.

[2] = target: T1, serotonin-1 receptor (Rattus norvegicus, UniProt P19327); test: Affinity for serotonin-1 receptor: 3H-8-OH-DPAT binding assay; settings: rat hippocampus synaptosomal membranes; 3H-8-OH-DPAT 0.2 nM; pH 7.4, 37° C., 10 min
T1 sequence (P19327 1-422): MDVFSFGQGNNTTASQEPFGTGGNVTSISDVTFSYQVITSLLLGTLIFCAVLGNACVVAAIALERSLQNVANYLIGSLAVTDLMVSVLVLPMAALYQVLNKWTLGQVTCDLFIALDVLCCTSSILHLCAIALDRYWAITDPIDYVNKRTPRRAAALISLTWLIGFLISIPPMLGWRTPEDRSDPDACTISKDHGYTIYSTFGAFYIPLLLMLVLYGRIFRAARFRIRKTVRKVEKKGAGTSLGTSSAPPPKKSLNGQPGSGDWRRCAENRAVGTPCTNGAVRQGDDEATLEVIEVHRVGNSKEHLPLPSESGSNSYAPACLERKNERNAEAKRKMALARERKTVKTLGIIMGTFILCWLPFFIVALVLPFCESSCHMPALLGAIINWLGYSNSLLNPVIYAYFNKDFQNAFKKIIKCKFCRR
Procedure: (§1) Experiment 3 Affinity for serotonin receptor
(1) Affinity for serotonin-1 receptor: ^3 H-8-hydroxy-2-(dipropylamino)tetralin(^3 H-8-OH-DPAT) binding assay
Preparation of synaptosomal membranes and ^3 H-8-OH-DPAT binding assay were performed according to the method of Hall et al(Journal of Neurochemistry, vol. 44, p. 1685, 1985).
Rat hyppocampus which was maintained in a freezed state was homogenized in 40-fold volumes of ice-cold 50 mM Tris-HCl buffer (pH 7.4) and centrifugated at 500 g for 10 minutes at 0° C. Further, the supernatant was centrifugated at 40,000 g for 20 minutes at 0° C. and the pellets thus obtained were homogenized in 40-fold volumes of the same buffer as mentioned above, and then incubated at 37° C. for 10 minutes. After incubation, the suspension was centrifugated at 40,000 g for 20 minutes at 0° C. The obtained pellets were washed by repeating twice the procedures of homogenization in the above-mentioned buffer and centrifugation. The suspension of synaptosomal membranes was prepared by homogenizing the pellets finally obtained in 60-fold volumes of 50 mM Tris-HCl buffer (pH 7.4) containing 1 mM manganese chloride.
To 900 μl of the membrane suspension were added 50 μl of ^3 H-8-OH-DPAT solution (final concentration: 0.2 nM), and 50 μl of the test compound solution or the solvent and the mixture was incubated at 37° C. for 10 minutes. After incubation, 5 ml of ice-cold 50 mM Tris-HCl buffer (pH 7.4) was added, and immediately thereafter, the mixture was filtered with suction through Whatman GF/B filter. The filter was washed twice with 5 ml of the same buffer as mentioned above and the radioactivity on the filter was measured by a liquid scintillation counter.

[3] = target: T2, serotonin-2 receptor (Rattus norvegicus, UniProt P14842); test: Affinity for serotonin-2 receptor: 3H-spiperone binding assay; settings: rat cerebral cortex synaptosomal membranes; 3H-spiperone 0.5 nM; 37° C., 20 min
T2 construct: from tissue; host or cells: rat cerebral cortex, synaptosomal membranes
T2 sequence (P14842 whole entry): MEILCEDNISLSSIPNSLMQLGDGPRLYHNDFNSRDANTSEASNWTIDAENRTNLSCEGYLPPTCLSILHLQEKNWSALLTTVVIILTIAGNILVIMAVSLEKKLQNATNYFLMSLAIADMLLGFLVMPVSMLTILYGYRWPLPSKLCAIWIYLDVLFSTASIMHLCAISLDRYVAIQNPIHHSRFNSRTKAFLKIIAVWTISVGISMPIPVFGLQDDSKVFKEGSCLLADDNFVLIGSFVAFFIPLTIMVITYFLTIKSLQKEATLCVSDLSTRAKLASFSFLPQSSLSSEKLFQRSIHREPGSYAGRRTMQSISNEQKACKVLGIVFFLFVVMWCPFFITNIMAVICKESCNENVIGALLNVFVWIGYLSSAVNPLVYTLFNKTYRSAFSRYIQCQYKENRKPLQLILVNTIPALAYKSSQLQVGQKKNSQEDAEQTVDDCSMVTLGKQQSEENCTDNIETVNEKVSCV
Procedure: as §1
(2) Affinity for serotonin-2 receptor: ^3 H-spiperone bindig assay
The preparation of synaptosomal membranes and binding assay were performed according to the method of Peroutka and Snyder (Molecular Pharmacology, vol. 16, p. 687, 1979).
Rat cerebral cortex which was maintained in a freezed state was homogenized in 20-fold volumes of ice-cold 0.32 M sucrose and centrifugated at 1,000 g for 10 minutes at 0° C. The supernatant was centrifugated at 50,000 g for 15 minutes at 0° C. The obtained pellets were homogenized in 20-fold volumes of ice-cold 50 mM Tris-HCl buffer (pH 7.5). The mixture was incubated at 37° C. for 10 minutes, and further centrifugated at 50,000 g for 15 minutes at 0° C. The suspension of synaptosomal membrane was prepared by homogenizing the obtained pellets in 60-fold volumes of the buffer mentioned above containing 1.1 mM ascorbic acid, 4 mM calcium chloride and 10 μM pargyline.
To 900 μl of the suspension of synaptosomal membrane were added 50 μl of ^3 H-spiperone (final concentration : 0.5 nM) and 50 μl of the test compound solution or the solvent, and then incubated at 37° C. for 20 minutes. After the completion of incubation, 5 ml of ice-cold buffer as mentioned above was added. Immediately thereafter, the mixture was filtered with suction through Whatman GF/B filter. The filter was washed twice with 5 ml of the same buffer as mentioned above and the radioactivity on the filter was measured by a liquid scintillation counter.

[4] = test system: apomorphine-induced motility; test: Experiment 1 Anti-apomorphine action (motility, Varimex); format: in vivo, male dd-strain mice; settings: Mus musculus, po; apomorphine 0.5 mg/kg s.c. 1 h after compound; motility 20 min; dose lowering motility of control by 50%
Procedure: Experiment 1 Anti-apomorphine action
Groups of 3 male dd-strain mice (4 groups/dose) were used. Test compounds were orally administered and an hour later, 0.5 mg/kg of apomorphine was subcutaneously administered. Immediately thereafter, motility was measured with the aid of Varimex (manufactured by Columbus Co.) for 20 minutes. The ED50 values, the dose of test compound required to lower the motility of the control group by 50%, were graphically calculated.

[5] = Experiment 4 Cataleptogenic action; format: in vivo, female Wistar-strain rats; settings: rat, in vivo, po; orally; peak time of catalepsy within 9 hours; probit method
Procedure: (§2) Then, the cataleptogenic action of the compound of Example 15 was studied for the purpose of measuring the degree of the extrapyramidal side effect. […]
(§3) Experiment 4 Cataleptogenic action
(§4) Groups of 10 female Wistar-strain rats were used. Catalepsy was measured by the partly modified method of Simon et al (Journal of Pharmacy and Pharmacology, vol. 22, P. 546, 1970). The front paws of the rats were placed gently on a vertical grid (4 mm diameter, 9 cm height).
(§5) After the compound of Example 15 was orally administered, catalepsy was measured with the passage of time in 9 hours.

[6] = test system: catalepsy; test: Experiment 4 Cataleptogenic action; format: in vivo, female Wistar-strain rats; settings: rats, index of extrapyramidal side effects
Procedure: as §2, §3, §4, §5

SMILES	ED50 [1] [mg/kg]	Ki [2] [nM]	Ki [3] [nM]	ED50 [4] [mg/kg]	ED50 [5] [mg/kg]	cataleptogenic action (in words) [6]
Cc1cccc(N2CCN(CCCCc3ccc(C4CCC(=O)N4)cc3)CC2)c1 (centres unmarked) [Example 1, 5-[4-(4-(4-(3-methylphenyl)piperazin-1-yl)butyl)phenyl]pyrrolidin-2-one]	0.53	0.61	23	13	–	–
Cl.O=C1CCC(c2ccc(CCN3CCN(c4cccc(C(F)(F)F)c4)CC3)cc2)N1 (centres unmarked) [Example 2, 5-[4-(2-(4-(3-trifluoromethylphenyl)piperazin-1-yl)ethyl)phenyl]pyrrolidin-2-one hydrochloride]	0.15	0.31	78	15	–	–
O=C1CCC(c2ccc(CCCCN3CCN(c4ccc(F)cc4)CC3)cc2)N1 (centres unmarked) [Example 6, 5-[4-(4-(4-(4-fluorophenyl)piperazin-1-yl)butyl)phenyl]pyrrolidin-2-one]	2.2	4.7	66	4.2	–	–
COc1ccccc1N1CCN(CCCCc2ccc(C3CCC(=O)N3)cc2)CC1 (centres unmarked) [Example 7, 5-[4-(4-(4-(2-methoxyphenyl)piperazin-1-yl)butyl)phenyl]pyrrolidin-2-one]	3.5	0.28	480	2.1	–	–
O=C1CCC(c2ccc(CCCN3CCN(c4ccccc4)CC3)cc2)N1 (centres unmarked) [Example 9, 5-[4-(3-(4-phenylpiperazin-1-yl)propyl)phenyl]pyrrolidin-2-one]	2.4	4.5	250	9.5	–	–
Cl.Cl.O=C1CCC(c2ccc(CCCCN3CCN(c4cccc(C(F)(F)F)c4)CC3)cc2)N1 (centres unmarked) [Example 15, 5-[4-(4-(4-(3-trifluoromethylphenyl)piperazin-1-yl)butyl)phenyl]pyrrolidin-2-one dihydrochloride]	0.32	0.4	63	4.2	250	very weak cataleptic action
